Assay results from patent publication US8415299B2, “Methods for improved avian performance” (priority 2004, dated 2013).
Like-named read-outs stand apart in the source and are kept apart here.

Tested on: Cobb broiler breeder hens and roosters
Assay type: in vivo
From the text: Molting Cobb Broiler Breeder Hens and Roosters with Dietary Thyroxine.

## N[C@@H](Cc1cc(I)c(Oc2cc(I)c(O)c(I)c2)c(I)c1)C(=O)O [L-thyroxine, 3,5,3′,5′-tetraiodothyronine]
25 or 40 mg/kg diet, roosters began to stroke blood from the nostrils
  Tolerance in roosters: males were unable to tolerate these levels of L-thyroxine
25 ppm feed from 22-Sep, pen 50, 1-Nov
  # Eggs per pen: 0
25 ppm feed from 22-Sep, pen 50, 1-Oct
  # Eggs per pen: 3
25 ppm feed from 22-Sep, pen 50, 2-Nov
  # Eggs per pen: 0
25 ppm feed from 22-Sep, pen 50, 2-Oct
  # Eggs per pen: 1
25 ppm feed from 22-Sep, pen 50, 3-Nov
  # Eggs per pen: 0
25 ppm feed from 22-Sep, pen 50, 3-Oct
  # Eggs per pen: 0
25 ppm feed from 22-Sep, pen 50, 4-Nov
  # Eggs per pen: 0
25 ppm feed from 22-Sep, pen 50, 4-Oct
  # Eggs per pen: 1
25 ppm feed from 22-Sep, pen 50, 5-Oct
  # Eggs per pen: 1
25 ppm feed from 22-Sep, pen 50, 6-Oct
  # Eggs per pen: 0
25 ppm feed from 22-Sep, pen 50, 7-Oct
  # Eggs per pen: 0
25 ppm feed from 22-Sep, pen 50, 8-Oct
  # Eggs per pen: 3
25 ppm feed from 22-Sep, pen 50, 9-Oct
  # Eggs per pen: 1
25 ppm feed from 22-Sep, pen 50, 10-Oct
  # Eggs per pen: 0
25 ppm feed from 22-Sep, pen 50, 11-Oct
  # Eggs per pen: 0
25 ppm feed from 22-Sep, pen 50, 12-Oct
  # Eggs per pen: 0
25 ppm feed from 22-Sep, pen 50, 13-Oct
  # Eggs per pen: 0
25 ppm feed from 22-Sep, pen 50, 14-Oct
  # Eggs per pen: 0
25 ppm feed from 22-Sep, pen 50, 15-Oct
  # Eggs per pen: 0
25 ppm feed from 22-Sep, pen 50, 16-Oct
  # Eggs per pen: 0
25 ppm feed from 22-Sep, pen 50, 16-Sep
  # Eggs per pen: 15
25 ppm feed from 22-Sep, pen 50, 17-Oct
  # Eggs per pen: 0
25 ppm feed from 22-Sep, pen 50, 17-Sep
  # Eggs per pen: 14
25 ppm feed from 22-Sep, pen 50, 18-Oct
  # Eggs per pen: 0
25 ppm feed from 22-Sep, pen 50, 18-Sep
  # Eggs per pen: 11
25 ppm feed from 22-Sep, pen 50, 19-Oct
  # Eggs per pen: 0
25 ppm feed from 22-Sep, pen 50, 19-Sep
  # Eggs per pen: 17
25 ppm feed from 22-Sep, pen 50, 20-Oct
  # Eggs per pen: 0
25 ppm feed from 22-Sep, pen 50, 20-Sep
  # Eggs per pen: 15
25 ppm feed from 22-Sep, pen 50, 21-Oct
  # Eggs per pen: 0
25 ppm feed from 22-Sep, pen 50, 21-Sep
  # Eggs per pen: 14
25 ppm feed from 22-Sep, pen 50, 22-Oct
  # Eggs per pen: 0
25 ppm feed from 22-Sep, pen 50, 22-Sep
  # Eggs per pen: 14
25 ppm feed from 22-Sep, pen 50, 23-Oct
  # Eggs per pen: 0
25 ppm feed from 22-Sep, pen 50, 23-Sep
  # Eggs per pen: 19
25 ppm feed from 22-Sep, pen 50, 24-Oct
  # Eggs per pen: 0
25 ppm feed from 22-Sep, pen 50, 24-Sep
  # Eggs per pen: 7
25 ppm feed from 22-Sep, pen 50, 25-Oct
  # Eggs per pen: 0
25 ppm feed from 22-Sep, pen 50, 25-Sep
  # Eggs per pen: 8
25 ppm feed from 22-Sep, pen 50, 26-Oct
  # Eggs per pen: 0
25 ppm feed from 22-Sep, pen 50, 26-Sep
  # Eggs per pen: 9
25 ppm feed from 22-Sep, pen 50, 27-Oct
  # Eggs per pen: 0
25 ppm feed from 22-Sep, pen 50, 27-Sep
  # Eggs per pen: 4
25 ppm feed from 22-Sep, pen 50, 28-Oct
  # Eggs per pen: 0
25 ppm feed from 22-Sep, pen 50, 28-Sep
  # Eggs per pen: 3
25 ppm feed from 22-Sep, pen 50, 29-Oct
  # Eggs per pen: 0
25 ppm feed from 22-Sep, pen 50, 29-Sep
  # Eggs per pen: 1
25 ppm feed from 22-Sep, pen 50, 30-Oct
  # Eggs per pen: 0
25 ppm feed from 22-Sep, pen 50, 30-Sep
  # Eggs per pen: 0
25 ppm feed from 22-Sep, pen 50, 31-Oct
  # Eggs per pen: 0
40 ppm feed from 22-Sep, pen 51, 1-Nov
  # Eggs per pen: 1
40 ppm feed from 22-Sep, pen 51, 1-Oct
  # Eggs per pen: 1
40 ppm feed from 22-Sep, pen 51, 2-Nov
  # Eggs per pen: 3
40 ppm feed from 22-Sep, pen 51, 2-Oct
  # Eggs per pen: 0
40 ppm feed from 22-Sep, pen 51, 3-Nov
  # Eggs per pen: 3
40 ppm feed from 22-Sep, pen 51, 3-Oct
  # Eggs per pen: 0
40 ppm feed from 22-Sep, pen 51, 4-Nov
  # Eggs per pen: 5
40 ppm feed from 22-Sep, pen 51, 4-Oct
  # Eggs per pen: 0
40 ppm feed from 22-Sep, pen 51, 5-Oct
  # Eggs per pen: 0
40 ppm feed from 22-Sep, pen 51, 6-Oct
  # Eggs per pen: 0
40 ppm feed from 22-Sep, pen 51, 7-Oct
  # Eggs per pen: 0
40 ppm feed from 22-Sep, pen 51, 8-Oct
  # Eggs per pen: 0
40 ppm feed from 22-Sep, pen 51, 9-Oct
  # Eggs per pen: 0
40 ppm feed from 22-Sep, pen 51, 10-Oct
  # Eggs per pen: 0
40 ppm feed from 22-Sep, pen 51, 11-Oct
  # Eggs per pen: 0
40 ppm feed from 22-Sep, pen 51, 12-Oct
  # Eggs per pen: 0
40 ppm feed from 22-Sep, pen 51, 13-Oct
  # Eggs per pen: 0
40 ppm feed from 22-Sep, pen 51, 14-Oct
  # Eggs per pen: 0
40 ppm feed from 22-Sep, pen 51, 15-Oct
  # Eggs per pen: 0
40 ppm feed from 22-Sep, pen 51, 16-Oct
  # Eggs per pen: 0
40 ppm feed from 22-Sep, pen 51, 16-Sep
  # Eggs per pen: 12
40 ppm feed from 22-Sep, pen 51, 17-Oct
  # Eggs per pen: 0
40 ppm feed from 22-Sep, pen 51, 17-Sep
  # Eggs per pen: 19
